Key:
[1] = tested on: tumor cell lines (LnCAP, MCF-7, SH-SY5Y and MDA-MB-231); assay: MTT assay, toxicity in tumor cell lines; assay type: cell-based, human; settings: 10 μM, MCF-7 and SH-SY5Y
Description: In contrast, four tumor cell lines were used herein. The first tumor cell line was a human neuroblastoma cell line, SH-SY5Y, from American Type Culture Collection (ATCC; Rockville, Md.). The second tumor cell line was a human prostate cancer cell line, LnCAP, from ATCC. The third tumor cell line was a human breast cancer cell line, MCF-7, from ATCC. The fourth tumor cell line was a human metastatic breast cancer cell line, MDA-MB-231 from ATCC.
(§1) In a first set of experiments, a dose-response curve to MitoQ was measured in each of the six cell lines described above. Briefly, cells were treated with various concentrations of MitoQ for twenty-four hours. Following treatment, cellular toxicity was measured by a MTT assay as described below.
In a third set of experiments, each of the six cell lines described above were subjected to the following treatments: (1) 10 μM MitoQ; (2) 10 μM CoQ (MitoQ without the phosphonium, which served as a control); and (3) 10 μM triphenylphosphonium (TPP; MitoQ without the ubiquinone or the ubquinol moiety, which also served as a control). Following treatment, cellular toxicity was measured by the MTT assay. […]

[2] = tested on: isolated cardiomyocytes and isolated hearts; settings: cited from earlier work
male Sprague Dawley rats = assay: Echocardiography in DOX-treated rats (cardiac function test); assay type: in vivo, rat
Protocol: (§2) In a first set of experiments, male Sprague Dawley rats were divided into the following four treatment groups: (1) PBS control; (2) MitoQ (5 mg/kg, i.p., twice per week); (3) DOX (2.5 mg/kg, i.v.); and (4) DOX plus MitoQ (2.5 mg/kg DOX and 5 mg/kg MitoQ, both i.p.). All agents were administered in PBS for ten weeks. At weeks four, eight, ten and twelve, cardiac function tests were performed. Following the treatments, the rats were sacrificed and hearts were removed for histochemical and biochemical analysis. See FIG. 8 for treatment protocol
In a second set of experiments, a different mitochondria-target antioxidant was assessed, Mito-TEMPOL. Male Sprague Dawley rats were divided into the following four treatment groups: (1) PBS control; (2) Mito-TEMPOL (5 mg/kg, i.p., twice per week); (3) DOX (2.5 mg/kg, i.v.); and (4) DOX plus Mito-TEMPOL (2.5 mg/kg and 5 mg/kg Mito-TEMPOL, both i.p.). All agents were administered in PBS for ten weeks. At weeks four, eight, ten and twelve, cardiac function tests were performed. Following treatment, the rats were sacrificed and hearts were removed for histochemical and biochemical analysis.
Cardiac Function Test: Echocardiography was performed at baseline, four, eight, ten and twelve weeks following the start of treatment. Rats were anesthetized with a mixture of ketamine (75 mg/kg) and medotomidine (0.25 mg/kg). Once anesthetized, the chest was shaved and cardiac rhythm monitored using three limb leads attached to a Vivid 7 from General Electric (Waukesha, Wis.) and a M12L linear array probe.
2-D B mode imaging parameters were as follows: (1) depth, 2.5 cm.; (2) frame rate, 230 frames/second; and (3) second harmonic imaging. For the primary endpoint data, the standard short axis view at the mid-ventricular level were used. Because of the serial nature of comparative measurements, co-registration at this level was ensured by the use of papillary muscles as localizers and obtaining a circular left ventricular slice. Other standard views obtained induced short axis apical slices and short axis basal slices at the mitral valve. […] In addition, Q analysis software (General Electric) of the B mode echo images was used to measure regional radial and circumferential strain. Furthermore, diastolic function was monitored by using pulsed Doppler of the mitral inflow and aortic outflow regions in a standard apical four chamber/five chamber view, as was mitral E wave, A wave, isovolumic relaxation time and mitral E deceleration time.

laboratory animals = settings: in vivo; cited from earlier work
[3] = tested on: bovine aortic endothelial cells (BAEC); assay: MTT assay, toxicity in normal cells BAEC; assay type: cell-based; settings: 10 μM; BAECs
Protocol: (§3) Cell lines: Two normal cell lines were used herein. The first normal cell line was a rat-derived embryonic cardiomyocyte cell line, H9c2, from […] (Manassas, Va.; Catalog No. CRL-1446). The second normal cell line was BAECs from Clonetics Corp. (San Diego, Calif.).
as §1
(§4) In a third set of experiments, each of the six cell lines described above were subjected to the following treatments: (1) 10 μM MitoQ; (2) 10 μM CoQ (MitoQ without the phosphonium, which served as a control); and (3) 10 μM triphenylphosphonium (TPP; MitoQ without the ubiquinone or the ubquinol moiety, which also served as a control). Following treatment, cellular toxicity was measured by the MTT assay.
(§5) MTT Assay: An MIT assay was performed to examine MitoQ's toxicity on normal cells and tumor cells (see Mosmann T, “Rapid colorimetric assay for cellular growth and survival: Application to proliferation and cytotoxicity assays,” J. Immunol. Meth. 65:55-63 (1983)). […] Formazon crystals formed cells were solubilized by adding 200 μl of 0.1N HCl in isopropanol, and absorbance was measured at 570 nm.

H9c2 cells = assay: MTT assay, toxicity in normal cells H9c2; assay type: cell-based, rat; settings: 10 μM
Protocol: as §3, §1, §4, §5

caspase-3 = assay: Caspase-3 activity in heart tissues of DOX-treated rats; assay type: in vivo, rat; settings: DOX treatment
Protocol: Caspase-3 Activity: Caspase-3 activity was measured with acetyl Asp-Glu-Val-Asp 7-amido-4-methlylcoumarin (Ac-DEVD-AFC), as described in a kit from Sigma Aldrich (St. Louis, Mo.). Caspase-3 hydrolyzes Ac-DEVD-AFC to release a fluorescent moiety, 7-amino-4-methylcoumarin (AMC). Briefly, treated cells were suspended in 100 μl of lysis buffer and passed through a 24-gauge needle 10 times to ensure complete lysis. The resulting lysate was centrifuged at 4° C. at 10,000 rmp. 50 μl of clear supernatant was used for the activity assay. […] The excitation and emission wavelengths of AMC are 360 nm and 460 nm respectively.
as §2
Caspase-3 was determined as described above in Example 3.

## coenzyme Q [CoQ]
[1]
  toxicity (MTT), FIG. 4: not toxic
[2]
  effect on DOX-induced toxicity: reversed DOX-induced toxicity
Male Sprague Dawley rats; after 12 weeks of DOX treatment
  DOX-induced cardiomyopathy (echocardiograms, FIG. 9A): not
Male Sprague Dawley rats; co-administered with DOX, echocardiography
  protection of left ventricular function and fractional shortening against DOX cardiotoxicity: did not significantly protect
Laboratory animals
  efficacy against DOX cardiotoxicity in animals: not as effective

## Cc1c(C)c2c(c(C)c1O)CC[C@@](C)(CCC[C@H](C)CCC[C@H](C)CCCC(C)C)O2 [α-tocopherol]
Laboratory animals
  efficacy against DOX cardiotoxicity in animals: limited efficacy

## triphenylphosphonium [TPP, reference compound]
[1]
  toxicity (MTT), FIG. 4: not toxic
[3]
  toxicity (MTT), FIG. 4: not toxic
H9c2 cells
  toxicity (MTT), FIG. 4: not toxic

## COc1cccc2c1C(=O)c1c(O)c3c(c(O)c1C2=O)C[C@@](O)(C(=O)CO)C[C@@H]3O[C@H]1C[C@H](N)[C@H](O)[C@H](C)O1 [DOX, doxorubicin]
caspase-3
  caspase activity in heart tissues: increased with increasing DOX treatment
Male Sprague Dawley rats; DOX 2.5 mg/kg, rats
  decrease of fractional shortening versus control: 18%
  decrease of radial strain versus control: 35%

## CC(=O)N[C@@H](CS)C(=O)O [N-acetylcysteine]
Laboratory animals
  efficacy against DOX cardiotoxicity in animals: limited efficacy

From patent publication US20080032940A1, “METHODS FOR REDUCING ANTHRACYCLINE-INDUCED TOXICITY” (priority 2006, published 2008)
